From patent publication US4564621A, “α-Aryl-α-pyridylalkanoic acid derivatives, process for preparation thereof and pharmaceutical composition comprising the same” (Fujisawa Pharmaceutical Co., Ltd., priority 1982, dated 1986)
Where two headings read alike, the source gives them in different places.

Experiments:
gastric antrum = assay: Spasmolytic activity in vivo: spontaneous contraction of the gastric antrum; parameters: species or system Mongrel dogs; details: dogs
Method: (§1) Spasmolytic activity in vivo
(§2) Mongrel dogs were anesthetized with s.c. injection of morphine chloride (10 mg/kg) and urethane (1.5 g/kg). The abdomen was incised along the midline, and a ballon filled with water was introduced into the gastric antrum or jejunum. The spontaneous contraction of the gastric antrum and jejunum were continuously recorded through the balloon connected to a pressure transducer. The test drugs were given intravenously. The effect of the test drug is expressed as inhibitory percentage compared to the contractile magnitude obtained before the test drug. The blood pressure was also monitored with a pressure transducer through a cannula inserted in the femoral artery.

stress ulcer = assay: Test B: Inhibition on stress ulcer; type: in vivo, male Sprague-Dawley rats; details: for ED50: Rattus norvegicus, read-out: ED50 (Test B, stress ulcer)
Method: Inhibition on stress ulcer
Five male Sprague-Dawley rats, aged 7 weeks and weighing about 200 g were used per group for the study on stress ulcer after the fast for 24 hours. Each animal was immobilized in a restrain cage and immersed to a level of the xiphoid in a water bath kept 22° C. The test compound suspended in 0.1% methylcellulose solution was administered orally (5 ml/kg) just before the immobilization. Seven hours later, the animals were sacrificed and their stomachs were removed. The stomach was then fixed with 2% formalin. The area of ulcers was measured for each animal. The mean area (mm^2) in the test animals was compared with that in the control animals.

[1] = Blood pressure monitored in spasmolytic activity test (cannula in femoral artery); type: in vivo, Mongrel dogs; details: dogs
Method: as §1, §2

jejunum = assay: Spasmolytic activity in vivo: spontaneous contraction of the jejunum; parameters: species or system Mongrel dogs; details: dogs
Method: as §1, §2

gastric secretion = assay: Test A: Gastric secretion in Heidenhain pouch dogs (tetragastrin-stimulated total acid output); type: in vivo, Beagle dogs; details: Canis lupus familiaris, intravenous, tetragastrin 10 μg/kg/hr
Method: Gastric secretion in Heidenhain pouch dogs
Beagle dogs, weighing about 8-13 kg, were used for the study on gastric secretion. The animals were surgically provided with a vagally denervated Heidenhain pouch. One month or more later, the dogs were fasted overnight. Gastric secretion was stimulated by an intravenous infusion of tetragastrin (10 μg/kg/hr). Gastric samples were collected at 15 min intervals. After its volume was almost constant, test compound suspended in 0.1% methyl cellulose solution was injected intravenously (0.2 ml/kg). Acid concentration was determined by titrating an aliquot to pH 7.0 with 0.1N sodium hydroxide solution using automatic titration (Hiranuma RAT-11 Type). Total acid output was calculated by multiplying total volume of gastric samples by acid concentration, and percentage change of total acid output was calculated by comparing with predosing value of test compound.

ethanol ulcer = assay: Test C: Inhibition on ethanol ulcer; type: in vivo, male Sprague-Dawley rats; details: Rattus norvegicus, 0.5 h; oral; rats; absolute ethanol 5 ml/kg 30 minutes after dosing
Method: Inhibition on ethanol ulcer
Five male Sprague-Dawley rats, aged 7 weeks and weighing about 200 g, were used per group for the study on ethanol ulcer after the fast for 24 hours.
Test compound was suspended in 0.1% methylcellulose aqueous solution, and the suspension (5 ml/kg) was orally given to each rat.
The control group was given a vehicle, i.e. 0.1% methylcellulose aqueous solution (5 ml/kg), alone in the same way.
Absolute ethanol (5 ml/kg) was orally administered 30 minutes after dosing with test compound, and one hour later, the rats were sacrificed and their stomachs were removed. The area of ulcers of each rat was measured. The mean area (mm^2) in the medicated group was compared with that in the control group.

[2] = British Pat. No. 666,778; cited from earlier work
[3] = oral, rats, restraint and water immersion 22° C., 7 hours

SMILES | Duration (gastric antrum) (gastric antrum; 100 μg/Kg intravenous) | Inh. (gastric antrum) (gastric antrum; 100 μg/Kg intravenous) | Blood pressure change (gastric antrum) ([1]; 100 μg/Kg intravenous) | Blood pressure change (jejunum) ([1]; 100 μg/Kg intravenous) | Duration (jejunum) (jejunum; 100 μg/Kg intravenous) | Inh. (jejunum) (jejunum; 100 μg/Kg intravenous) | Duration (gastric antrum) (gastric antrum; 10 μg/Kg intravenous) | Inh. (gastric antrum) (gastric antrum; 10 μg/Kg intravenous) | Blood pressure change (gastric antrum) ([1]; 10 μg/Kg intravenous) | Blood pressure change (jejunum) ([1]; 10 μg/Kg intravenous) | Duration (jejunum) (jejunum; 10 μg/Kg intravenous) | Inh. (jejunum) (jejunum; 10 μg/Kg intravenous) | ED50 (gastric secretion) | ED50 (ethanol ulcer) | further results
CC(C)N(CCC(C(N)=O)(c1ccccc1)c1ccccn1)C(C)C (stereo not drawn) [Disopyramide phosphate, α-phenyl-α-(2-pyridyl)-4-(N,N-diisopropylamino)butyramide] | 10 min | 46% | +3% | +1% | 0 min | 4% | – | – | – | – | – | – | – | – | Duration (gastric antrum) (gastric antrum; 1000 μg/Kg intravenous): 60 min; Inh. (gastric antrum) (gastric antrum; 1000 μg/Kg intravenous): 88%; ED50 (Test B, stress ulcer) (stress ulcer; [3]): No Effect; Blood pressure change (gastric antrum) ([1]; 1000 μg/Kg intravenous): +5%; Blood pressure change (jejunum) ([1]; 1000 μg/Kg intravenous): +14%; Duration (jejunum) (jejunum; 1000 μg/Kg intravenous): > 60 min; Inh. (jejunum) (jejunum; 1000 μg/Kg intravenous): 85%
COC1CC(=C(c2cccs2)c2cccs2)C[N+](C)(C)C1 (centres unmarked) [Timepidium Bromide] | 30 min | 92% | -19% | -24% | > 60 min | 91% | 10 min | 55% | +4% | -3% | 30 min | 59% | – | – | –
CC(CC(C(N)=O)(c1ccccc1)c1ccccn1)N(C)C (centres unmarked) [Example 3, 4-(N,N-dimethylamino)-2-phenyl-2-(2-pyridyl)-valeramide] | 90 min | 95% | -4% | -7% | > 60 min | 93% | 60 min | 52% | -3% | -3% | 30 min | 70% | 0.27 mg/kg | 6.8 mg/kg | ED50 (stress ulcer; po, 7 h): 2.7 mg/kg
CC(CN(C)C)C(C#N)(c1ccccc1)c1ccccn1 (stereo not drawn) [α-phenyl-α-(2-pyridyl)-4-(N,N-dimethylamino)-3-methylbutyronitrile] | – | – | – | – | – | – | – | – | – | – | – | – | – | – | antihistaminic activity [2]: possesses antihistaminic activity
CN1CCN(CC(=O)N2c3ccccc3C(=O)Nc3cccnc32)CC1 [Gastrozepine] | – | – | – | – | – | – | – | – | – | – | – | – | 0.03 mg/kg | 14.4 mg/kg | ED50 (stress ulcer; [3]): 36 mg/kg
